The text below walks through data of patent EP2692352A1, “HOT FLASH SUPPRESSANT” (Shiseido Company, Ltd., priority 2011, dated 2014).

One assay has as its system menopausal mice. The conditions noted are these: apelin highly expressed in epidermis (K14 promoter transgene, OVXTG) vs OVXWT; nifedipine 50 µg/kg i.p.; 10, 30 and 45 minutes; FIG. 1.
The next assay has as its system Apelin receptor APJ. The experiment in a line: cAMP luciferase assay in APJ-expressing NIH3T3 cells (screening system for apelin-like agents). It is filed as cell-based. The note with it: FIG. 3.

Method for Apelin receptor APJ: A cAMP luciferase reporter vector was transfected into a stable cell line, which was obtained by highly expressing Apelin receptor APJ in NIH3T3 cells, and then subjecting to selection with hygromycin (provided by Professor Nobuyuki Takakura of the Research Institute for Microbial Diseases of Osaka University), and these were used in the cAMP luciferase assay described below. Culturing was carried out in DMEM medium containing 10% FBS containing 200 µg/ml of hygromycin (Invitrogen). On the day before the assay, 2.0 x 10^5 cells were seeded into each well of a 96-well plate followed by culturing in DMEM medium containing 10% FBS and 200 µg/ml of hygromycin.
After culturing overnight, the medium was removed by aspiration and replaced with 100 µl of additive-free DMEM per well. Three hours later, Glosensor™ cAMP Reagent (Promega) was added at 4 µl per well followed by equilibrating for 2 hours at room temperature under light blocking. Subsequently, apelin 13 (Peptide Institute) was diluted with additive-free DMEM medium to a concentration of 0.4 µg/ml and this was added at 50 µl per well (final concentration: 0.1 µg/ml) followed by incubating for 5 minutes at room temperature. […] Subsequently, luminescence was measured with the GloMax™ 96 Microplate Luminometer (Promega). […]
Method for menopausal mice: Ovariectomy was performed on C57/BL6 mice highly expressing apelin in the epidermis under the control of a K14 promoter (herein after referred to as apelin-highly expressed mice, apelin TG or TG) and the corresponding wild-type mice (C57/BL6) (n=5, 8 to 10 week-old) to obtain menopausal mice highly expressing apelin and menopausal wild type mice. Furthermore, wild type mice that underwent sham surgery were used as a control. Four weeks later, nifedipine (50 µg/kg) was administered intraperitoneally as a vasodilator, and changes in tail temperature were analyzed using thermography (Thermo Tracer TH9011MR, NEC/Avio Infrared Technologies Co., Ltd.) at 10, 30 and 45 minutes after administration.

As to apelin, the “transient rises in body temperature (tail temperature) caused by hot flashes” value with menopausal mice is on record as “able to suppress or improve transient rises in body temperature caused by hot flashes in a short period of time”. In the assay with Apelin receptor APJ (apelin 13 final concentration 0.1 µg/ml, forskolin final 10 µM, versus forskolin-only control), the cAMP concentration result is reported as “decreased”. Also, the “decreases in cAMP concentration in the presence of apelin neutralizing antibody” value in the assay on Apelin receptor APJ (apelin final 0.5 µg/ml together with neutralizing antibody 4G5 at 1.5, 5, 15 and 50 µg/ml) is on record as “suppressed”.
